From paper PMC6888128, “Biosynthesis of Phenylamide Phytoalexins in Pathogen-Infected Barley” (International Journal of Molecular Sciences, 2019)
Read-outs that look alike come from different tables or passages of the source.

Key:
HvTHT8 = system: T1, HvTHT8; experiment: LC-MS/MS (MRM) of amide product; format: biochemical, Hordeum vulgare; conditions: 100 mM Tris-HCl pH 8.0, 35 °C, read-out: HvTHT8 / K m
T1 construct: His-GST-tagged (pCold GST), E. coli BL21, TALON-purified; differs from HvTHT7 only at residue 166 (His/Arg)
Source text: LC-MS/MS (MRM) of amide product on HvTHT8

HvTHT7 = system: T2, HvTHT7; experiment: LC-MS/MS (MRM) of amide product; format: biochemical, Hordeum vulgare; conditions: 100 mM Tris-HCl pH 8.0, 35 °C, read-out: HvTHT7 / K m
T2 construct: His-GST-tagged (pCold GST), E. coli BL21, TALON-purified; HvTHT7 plasmid made by site-directed mutagenesis of HvTHT8; differs from HvTHT8 only at residue 166 (His/Arg)
Source text: LC-MS/MS (MRM) of amide product on HvTHT7

[1] = acyl acceptor, 200 µM cinnamoyl-CoA

Km (HvTHT8; acyl donor, 1 mM tryptamine) [µM] | Km (HvTHT7; acyl donor, 1 mM tryptamine) [µM] | Structure (SMILES) | Km (HvTHT8; [1]) [µM] | Km (HvTHT7; [1]) [µM]
 |  | NCc1c[nH]c2ccccc12 [IMA, (1H-indol-3-yl)methylamine] | 33.9 | 54.2
 |  | NCCc1c[nH]c2ccccc12 [Tryptamine] | 60.6 | 59.2
35.5 | 39.2 | CC(C)(COP(=O)(O)OP(=O)(O)OC[C@H]1O[C@@H](n2cnc3c(N)ncnc32)[C@H](O)[C@@H]1OP(=O)(O)O)[C@@H](O)C(=O)NCCC(=O)NCCSC(=O)/C=C/c1ccc(O)cc1 [Coumaroyl-CoA] |  | 
 |  | NCC(=O)c1c[nH]c2ccccc12 [8-Oxotryptamine] | 54.9 | 53.1
36.7 | 32.6 | COc1cc(/C=C/C(=O)SCCNC(=O)CCNC(=O)[C@H](O)C(C)(C)COP(=O)(O)OP(=O)(O)OC[C@H]2O[C@@H](n3cnc4c(N)ncnc43)[C@H](O)[C@@H]2OP(=O)(O)O)ccc1O [Feruloyl-CoA] |  | 
62.1 | 64.2 | CC(C)(COP(=O)(O)OP(=O)(O)OC[C@H]1O[C@@H](n2cnc3c(N)ncnc32)[C@H](O)[C@@H]1OP(=O)(O)O)[C@@H](O)C(=O)NCCC(=O)NCCSC(=O)/C=C/c1ccccc1 [Cinnamoyl-CoA] |  | 
 |  | NCCc1c[nH]c2ccc(O)cc12 [Serotonin] | 347 | 385
